Measured values published in US20040127416A1, “Therapeutic bioconjugates” (priority 2002, published 2004).
Values belong to the molecule of their own block, whether it stands above or below them. Ends that are not written are not given here. glycidyl methacrylate‑derivatized dextran = not defined here

Legend:
[1] = system: TNF-α stimulated, ICAM-expressing BECs; assay: inflammatory cell adhesion assay: U937 monocyte adhesion to TNF-α stimulated bovine endothelial cell monolayers; assay type: cell-based; details: U937 cells on TNF-α stimulated
Procedure: This experiment illustrates the activity of the bioconjugate, whose synthesis was described above, in the inflammatory cell adhesion assay. Bovine endothelial cell (BEC) monolayers were established in 24-well culture dishes. At 24 h prior to the assay, normal medium (Minimal Eagle's Medium with 10% fetal bovine serum, 1% ABAM and 1% L-glutamine) (Gibco, CA, USA) was replaced with medium containing tumor necrosis factor α (TNF-α, 10 ng/ml). Following the 24 h incubation period, each sample well received a medium change.
Treated sample groups received medium containing 6% dextran bioconjugate or 6% bioconjugate. […] Two other control treatments were given: a medium change with no dextran or peptide was given to a sample group pretreated with TNF-α, and a positive control that was not pretreated with TNF-α. After a 30-minute incubation period, the medium in all wells was replaced with medium containing the human monocyte cell line U937 (1×10^5/ml) (ATCC, Manassas, Va.). All samples were incubated for another 30 minutes, then washed three times with PBS to remove non-adherent cells. The average number of adherent cells per 100× microscopic field was determined for each sample group.

inflammatory HUVECs = assay: in vitro ICAM-1-mediated leukocyte cell adhesion assay: U937 adhesion to TNF-α treated HUVEC monolayers; assay type: cell-based, human; details: TNF-α (10 ng/ml, 24 h) treated HUVECs; medium containing 6% dextran bioconjugate, 30 min; n=4 wells
Procedure: To assess the effect of these peptide-dextran bioconjugates on inflammatory cell adhesion, the following in vitro ICAM-1-mediated leukocyte cell adhesion assay was performed. HUVEC monolayers were established in 24-well culture dishes. At 24 h prior to the assay, normal culture media were replaced with medium containing TNF-α (10 ng/ml). Following the 24 h incubation period, each sample well received a medium change. Treated sample groups received medium containing 6% dextran bioconjugate (dextran conjugated to the A domain peptide CNAFKILVVITDGEK). Untreated control samples received normal medium. Negative sham control samples received medium containing dextran conjugate with a scrambled A domain sequence (KCENGADFTKIIVLV). All samples were then incubated for 30 min prior to the adhesion assay. Medium was removed from all wells following the 30 min incubation and replaced with medium containing U937 monocytic cells (1×10^5/ml). All samples were then incubated for another 30 min. After this incubation period, samples were washed three times with PBS to remove non-adherent monocytes. The samples were then fixed, and an average number of adherent monocytes per 100× microscopic field was determined for each sample group. Statistical comparisons between sample groups (n=4 replicate wells per group) were performed using a student's t-test.

[2] = biological target: T1, ICAM-1 expressed on TNF-alpha stimulated bovine endothelial cells (BEC) (bovine, UniProt Q95132 28-535); assay: cell-based or functional assay
T1 sequence (looked up): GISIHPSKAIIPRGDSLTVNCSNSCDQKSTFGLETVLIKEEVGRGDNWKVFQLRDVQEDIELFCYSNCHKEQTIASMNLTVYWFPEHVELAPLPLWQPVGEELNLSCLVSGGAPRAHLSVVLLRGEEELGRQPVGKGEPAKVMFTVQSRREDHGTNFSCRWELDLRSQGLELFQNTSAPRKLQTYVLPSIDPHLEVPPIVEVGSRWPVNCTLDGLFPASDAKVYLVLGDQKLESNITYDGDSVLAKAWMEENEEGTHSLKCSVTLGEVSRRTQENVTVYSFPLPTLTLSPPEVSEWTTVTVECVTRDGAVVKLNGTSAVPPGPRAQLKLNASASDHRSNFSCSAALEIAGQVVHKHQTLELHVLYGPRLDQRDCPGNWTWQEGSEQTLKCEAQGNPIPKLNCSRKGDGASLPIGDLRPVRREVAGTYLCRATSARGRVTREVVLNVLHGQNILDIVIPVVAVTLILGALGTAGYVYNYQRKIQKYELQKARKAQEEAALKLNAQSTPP

- relative monocyte adherence (U937 cells on TNF-alpha activated BEC; negative control = 100%) [2]: 3.34%
B1: dextran/peptide bioconjugate: synthetic A domain peptide CNAFKILVVITDGEK coupled to methacroylated (activated) dextran (peptide)
peptide: C(glycidyl methacrylate‑derivatized dextran)NAFKILVVITDGEK
modifications: reading uncertain; also: polyvalent conjugate on dextran, peptides per dextran not given here

- relative monocyte adherence (U937 cells on TNF-alpha activated BEC; negative control = 100%) [2]: 95.7%
Molecule: CTVDLKFGIKNIEAV [inactive scrambled peptide CTVDLKFGIKNIEAV, unconjugated]

- relative monocyte adherence (U937 cells on TNF-alpha activated BEC; negative control = 100%) [2]: 56.3%
Molecule: CNAFKILVVITDGEK [synthetic peptide CNAFKILVVITDGEK, unconjugated]

- relative monocyte adherence (U937 cells on TNF-alpha activated BEC; negative control = 100%) [2]: 55.6%
B2: dextran bioconjugate containing the inactive scrambled A-domain peptide CTVDLKFGIKNIEAV (peptide)
peptide: CTVDLKFGIKNIEAV
modifications: not fully specified (residue 1); also: Cys sulfhydryl coupled to glycidyl methacrylate-derivatized dextran (about 70 kD)

The next lines start with the molecule.

Molecule: inactive peptide conjugate: dextran bioconjugate containing an inactive scrambled sequence of the A-domain peptide, CTVDLKFGIKNIEAV; sham control (also: conjugated to dextran, attachment site not given here) [reference compound]
- effect on monocyte adhesion (in words) [1]: inhibited cell adhesion poorly

Molecule: CTVDLKFGIKNIEAV [inactive peptide, reference compound]
- effect on monocyte adhesion (in words) [1]: comparable to no treatment after the TNF-α activation

Molecule: active peptide conjugate: methacroylated dextran (about 70 kD) coupled to synthetic peptide CNAFKILVVITDGEK, based on the ICAM-1-binding portion of integrin αmβ2 (CD11b/CD18) (also: coupled to methacroylated dextran (about 70 kD), site not given here)
- effect on monocyte adhesion (in words) ([1]; listed as active dextran bioconjugate): prevented monocyte adhesion to the extent observed in non-stimulated BECS
- effect on monocyte adhesion (in words) ([1]; listed as bioconjugate): reducing monocyte adhesion to levels observed in control, non-stimulated cells
- U937 cell adhesion reduced by (inflammatory HUVECs): 87.7%
